From patent US6646001B2, “Use of non-steroidal anti-inflammatory agents in combination with prostaglandin FP receptor agonists to treat glaucoma and ocular hypertension” (Alcon Manufacturing, Ltd., priority 1997, dated 2003)

Assay: nepafenac concentration in ocular tissues of rabbits following a single topical dose
Type: in vivo
Conditions: topical ocular administration of 0.3% nepafenac, simple formulation without penetration enhancers
Protocol: The estimated concentration within the anterior chamber following topical ocular administration of 0.3% nepafenac to rabbits is 24 μM (see FIGS. 1 and 2). This concentration, achieved using a simple formulation without penetration enhancers, is in excess of the parent compounds' COX I and COX II IC50s. This enhanced bioavailability provides a significant advantage and is unexpected over other non-steroidal anti-inflammatory drugs as well as amide derivatives of non-steroidal anti-inflammatory drugs. The compounds disclosed in the '034 patent, the contents of which are incorporated herein by reference, are ester and amide derivatives of 3-benzoylphenylacetic acid.

NC(=O)Cc1cccc(C(=O)c2ccccc2)c1N [nepafenac, 2-Amino-3-benzoyl-phenylacetamide]
estimated concentration within the anterior chamber: 24 µM
